Data from publication PMC11073699, “Odorant receptors for floral- and plant-derived volatiles in the yellow fever mosquito, Aedes aegypti (Diptera: Culicidae)” (PLOS ONE, 2024).
“And” between values parts separate entries of the source, which are not always exact repeats. Equal entries are not always repeated.

What was measured:
Type in all cases: cell-based
[1] = biological target: T1, AaegOR13 (Aedes aegypti, UniProt Q16Z13); assay: Two-electrode voltage clamp of Xenopus laevis oocytes expressing AaegOR13/Orco (blends, unitary compounds, concentration-response); conditions: unitary compounds; for Normalized response, unitary compounds, Average: average of oocytes 1-7; for Raw data (Responses in nA), unitary compounds of Indoles 1, Alcohols 1, Alcohols 3 / Normalized response, unitary compounds of Indoles 1, Alcohols 1, Alcohols 3: individual oocytes 1-7; for Normalized response, unitary compounds of Indoles 1, Alcohols 1, Alcohols 3: normalized per oocyte
T1 sequence (Q16Z13 1-389): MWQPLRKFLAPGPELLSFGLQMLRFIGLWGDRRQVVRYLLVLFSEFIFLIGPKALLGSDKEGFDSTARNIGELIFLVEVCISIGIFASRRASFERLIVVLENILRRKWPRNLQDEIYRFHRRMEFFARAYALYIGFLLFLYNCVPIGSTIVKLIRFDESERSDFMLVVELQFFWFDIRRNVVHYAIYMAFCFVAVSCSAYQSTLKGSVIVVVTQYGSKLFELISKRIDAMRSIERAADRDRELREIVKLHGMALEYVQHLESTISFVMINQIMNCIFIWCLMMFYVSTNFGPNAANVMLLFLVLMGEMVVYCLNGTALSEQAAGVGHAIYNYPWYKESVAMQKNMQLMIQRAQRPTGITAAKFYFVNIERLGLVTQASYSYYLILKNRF
T1 sequence (Q178U6 1-478 partner): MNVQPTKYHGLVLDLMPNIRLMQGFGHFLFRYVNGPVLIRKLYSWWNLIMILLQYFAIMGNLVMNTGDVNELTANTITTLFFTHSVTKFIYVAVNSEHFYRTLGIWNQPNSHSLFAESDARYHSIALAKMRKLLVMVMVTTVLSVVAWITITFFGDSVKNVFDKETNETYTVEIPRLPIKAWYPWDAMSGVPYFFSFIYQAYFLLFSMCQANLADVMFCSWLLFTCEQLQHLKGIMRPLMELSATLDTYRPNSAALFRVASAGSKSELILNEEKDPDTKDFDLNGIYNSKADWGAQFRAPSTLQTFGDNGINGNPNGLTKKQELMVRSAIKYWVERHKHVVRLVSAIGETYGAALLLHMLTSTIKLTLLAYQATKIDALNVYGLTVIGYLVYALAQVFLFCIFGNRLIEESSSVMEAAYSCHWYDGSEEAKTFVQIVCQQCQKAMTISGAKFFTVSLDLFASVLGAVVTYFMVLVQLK
Source text: (§1) The coding regions of ten AaegOR genes of interest (S3 File) and AaegOrco were synthesized by Twist Bioscience (San Francisco, CA, USA) and cloned into the pENTR plasmid. The Gateway LR directional cloning system (Invitrogen Corp., Carlsbad, CA, USA) was utilized to subclone AaegOR coding regions into the pSP64t-RFA oocyte expression plasmid. Plasmids were purified using the GeneJet Plasmid Miniprep Kit (ThermoFisher Scientific, Waltham, MA, USA). Purified plasmids were sequenced in both directions to confirm coding regions.
(§2) Chemical compounds (S6 File) used in the deorphanization of AaegORs were purchased from Acros Organics (Morris, NJ, USA), Alfa Aesar (Ward Hill, MA, USA), and ThermoFisher Scientific (Waltham, MA, USA) at the highest purity available. Compounds were stored as 1M stocks in 100% DMSO. Serial dilutions of each compound were prepared in 10% DMSO and blended by chemical class.
(§3) pSP64t-RFA: AaegOR clones were linearized using Xbal, and cRNAs were synthesized using the mMESSAGE mMACHINE ® SP6 kit (Life Technologies, Carlsbad, CA, USA). Xenopus laevis stage V-VII oocytes purchased from Xenopus1 (Dexter, MI, USA) were stored at 18°C in Incubation medium (ND96 96 with 5% dialyzed horse serum, 50μg/mL gentamycin, 100μg/mL streptomycin, 100μg/mL penicillin, and 550μg/mL sodium pyruvate). 30nL of cRNA was injected into multiple oocytes using a microinjection syringe pump (World Precision Instruments, Sarasota, FL, USA) maintained at 18°C for 48–72 hrs. Odorant blends were perfused across individual oocytes for 10–15 seconds, held at a resting membrane potential of -80 mV using an OC-725C oocyte clamp (Warner Instruments, LLC, Hamden, CT, USA). Induced currents were measured indirectly using the two-electrode voltage clamp technique (TEVC). Following each stimulus, currents were allowed to return to baseline before further stimulation. Data was captured using the Digidata 1550 B digitizer and PClamp10 software (Molecular Devices, San Jose, CA, USA). Concentration-response curves were generated by perfusing unitary odorants over oocytes at increasing concentrations from [10^-3M] to [10^-9M]. Data were analyzed using GraphPad Prism 8 (GraphPad Software Inc., La Jolla, CA, USA). At least two biological replicates were conducted at each concentration and for each compound. Data for at least seven oocytes responding to each compound was analyzed (S7 File).

[2] = biological target: T2, AaegOR8 (Aedes aegypti, UniProt Q16MN0); assay: Two-electrode voltage clamp of Xenopus laevis oocytes expressing AaegOR8/Orco (blends, unitary compounds, concentration-response); conditions: Alcohols 2 unitary compounds
T2 sequence (Q16MN0 32-422): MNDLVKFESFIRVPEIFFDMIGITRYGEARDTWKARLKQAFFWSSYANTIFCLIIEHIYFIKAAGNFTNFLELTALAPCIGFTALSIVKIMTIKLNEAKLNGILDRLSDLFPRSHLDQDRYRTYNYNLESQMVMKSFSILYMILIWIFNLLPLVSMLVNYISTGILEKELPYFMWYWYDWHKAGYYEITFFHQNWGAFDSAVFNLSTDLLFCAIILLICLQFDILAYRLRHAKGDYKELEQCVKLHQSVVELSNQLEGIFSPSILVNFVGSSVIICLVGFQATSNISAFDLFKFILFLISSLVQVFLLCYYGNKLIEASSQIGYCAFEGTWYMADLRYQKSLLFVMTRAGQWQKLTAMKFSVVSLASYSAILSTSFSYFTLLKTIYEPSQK
T2 sequence (Q178U6 1-478 partner): T1 sequence (Q178U6 1-478 partner)
Source text: as §1, §2, §3

[3] = biological target: T3, AaegOR6 (Aedes aegypti, UniProt A0A1S4G757); assay: Two-electrode voltage clamp of Xenopus laevis oocytes expressing AaegOR6/Orco (blends, unitary compounds, concentration-response); conditions: Indoles 2 unitary compounds
T3 sequence (A0A1S4G757 1-398): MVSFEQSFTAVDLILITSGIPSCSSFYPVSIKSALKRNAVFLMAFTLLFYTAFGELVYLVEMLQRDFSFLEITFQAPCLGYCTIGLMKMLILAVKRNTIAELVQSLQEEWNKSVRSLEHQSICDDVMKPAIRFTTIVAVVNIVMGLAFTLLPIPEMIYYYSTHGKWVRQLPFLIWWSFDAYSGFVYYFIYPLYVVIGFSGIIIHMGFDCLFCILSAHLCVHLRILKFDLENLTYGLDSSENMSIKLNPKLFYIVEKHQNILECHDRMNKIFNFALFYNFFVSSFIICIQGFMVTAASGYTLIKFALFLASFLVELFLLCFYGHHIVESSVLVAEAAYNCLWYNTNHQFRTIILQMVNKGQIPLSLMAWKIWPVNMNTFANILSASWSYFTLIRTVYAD
T3 sequence (Q178U6 1-478 partner): T1 sequence (Q178U6 1-478 partner)
Source text: as §1, §2, §3

[4] = biological target: T4, AaegOR71 (Aedes aegypti, UniProt A0A3S7SHD4); assay: Two-electrode voltage clamp of Xenopus laevis oocytes expressing AaegOR71/Orco (blends, unitary compounds, concentration-response); conditions: for Raw Data (Response in nA): concentration-response, Oocytes 1-8 individually
T4 sequence (A0A3S7SHD4 1-415): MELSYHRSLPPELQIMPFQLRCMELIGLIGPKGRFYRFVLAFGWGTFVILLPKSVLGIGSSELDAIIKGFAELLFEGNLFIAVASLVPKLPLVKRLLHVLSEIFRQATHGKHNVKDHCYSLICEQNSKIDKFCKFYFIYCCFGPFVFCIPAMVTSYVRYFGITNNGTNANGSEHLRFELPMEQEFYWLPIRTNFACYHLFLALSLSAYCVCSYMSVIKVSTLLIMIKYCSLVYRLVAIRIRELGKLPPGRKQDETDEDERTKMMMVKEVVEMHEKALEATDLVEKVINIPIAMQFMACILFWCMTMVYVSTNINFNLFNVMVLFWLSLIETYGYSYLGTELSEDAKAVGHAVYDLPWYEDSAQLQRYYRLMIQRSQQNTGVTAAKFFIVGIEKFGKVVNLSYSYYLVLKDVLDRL
T4 sequence (Q178U6 1-478 partner): T1 sequence (Q178U6 1-478 partner)
Source text: as §1, §2, §3

For `C=CC(C)(O)CCC=C(C)C` (single isomer, unassigned; (+)) [(+) Linalool], the “Normalized response, unitary compounds, Average” value [1] was 0.0, the “Raw data (Responses in nA), unitary compounds of Indoles 1, Alcohols 1, Alcohols 3” value (from here on “Raw data (Responses in nA) … Alcohols 3”) [1] was 0.0 nA and the “Normalized response, unitary compounds of Indoles 1, Alcohols 1, Alcohols 3” value [1] was 0.0.

With `CC1CCCC2(C)CCCCC12O` (stereo not shown) [Geosmin] the “Raw data (Responses in nA) Oocyte 1” value ([2]; oocyte 1) was 0.0 nA, the “Raw data (Responses in nA) Oocyte 2” value ([2]; oocyte 2) was 0.0 nA and the “Raw data (Responses in nA) Oocyte 3” value ([2]; oocyte 3) was 0.0 nA. The “Raw data (Responses in nA) Oocyte 4” value ([2]; oocyte 4) was 0.0 nA, the “Raw data (Responses in nA) Oocyte 5” value ([2]; oocyte 5) was 0.0 nA and the “Raw data (Responses in nA) Oocyte 6” value ([2]; oocyte 6) was 0.0 nA. The “Raw data (Responses in nA) Oocyte 7” value ([2]; oocyte 7) was 0.0 nA and the “Raw data (Responses in nA) Oocyte 8” value ([2]; oocyte 8) was 0.0 nA.

`C=CC(C)(O)CCC=C(C)C` (single isomer, unassigned; (-)) [(-) Linalool] was tested, and the “Normalized response, unitary compounds, Average” value [1] was 0.26, the “Raw data (Responses in nA) … Alcohols 3” value [1] was 0.0 nA (6×) and 5.0 nA and the “Normalized response, unitary compounds of Indoles 1, Alcohols 1, Alcohols 3” value [1] was 0.0 (6×) and 1.8.

For `O=Cc1c[nH]c2ccccc12` [indole-3-carboxyaldehyde], the “Raw data (Responses in nA) … Alcohols 3” value [1] was 0.0 nA (2×) and 5.0 nA (5×).

With `CC(C)(C)c1ccc(O)cc1` [4-tert-butylphenol] the “Raw data (Responses in nA) … Alcohols 3” value [1] was 10.0 nA and 305.0 nA and 70.0 nA and 85.0 nA and 150.0 nA and 90.0 nA and 55.0 nA.

For `O=Cc1ccnc2ccccc12` [4-quinolinecarboxaldehyde, 4-Quinolinecarboxaldehyde], the “Raw data (Responses in nA) Oocyte 1” value ([3]; oocyte 1) was 0.0 nA, the “Raw data (Responses in nA) Oocyte 2” value ([3]; oocyte 2) was 0.0 nA and the “Raw data (Responses in nA) Oocyte 3” value ([3]; oocyte 3) was 0.0 nA. For the same molecule, the “Raw data (Responses in nA) Oocyte 4” value ([3]; oocyte 4) was 0.0 nA, the “Raw data (Responses in nA) Oocyte 5” value ([3]; oocyte 5) was 0.0 nA and the “Raw data (Responses in nA) Oocyte 6” value ([3]; oocyte 6) was 0.0 nA. For the same molecule, the “Raw data (Responses in nA) Oocyte 7” value ([3]; oocyte 7) was 0.0 nA, the “Raw data (Responses in nA) Oocyte 8” value ([3]; oocyte 8) was 0.0 nA and the EC50 ([4]; AaegOR71/Orco expressing oocytes, TEVC, concentration-response of normalized current) was ~960 nM and 960 nM. For the same molecule, the “Raw Data (Response in nA) Oocyte 1” value ([4]; Indoles 2 unitary compounds, oocyte 1) was 1070 nA, the “Raw Data (Response in nA) Oocyte 2” value ([4]; Indoles 2 unitary compounds, oocyte 2) was 2930 nA and the “Raw Data (Response in nA) Oocyte 3” value ([4]; Indoles 2 unitary compounds, oocyte 3) was 590 nA. For the same molecule, the “Raw Data (Response in nA) Oocyte 4” value ([4]; Indoles 2 unitary compounds, oocyte 4) was 1710 nA, the “Raw Data (Response in nA) Oocyte 5” value ([4]; Indoles 2 unitary compounds, oocyte 5) was 390 nA and the “Raw Data (Response in nA) Oocyte 6” value ([4]; Indoles 2 unitary compounds, oocyte 6) was 930 nA. For the same molecule, the “Raw Data (Response in nA) Oocyte 7” value ([4]; Indoles 2 unitary compounds, oocyte 7) was 330 nA, the “Raw Data (Response in nA) Oocyte 8” value ([4]; Indoles 2 unitary compounds, oocyte 8) was 410 nA and the “Raw Data (Response in nA)” value ([4]; first series, 1e-9 M) was 10 nA (2×) and 0 nA (5×) and 30 nA. For the same molecule, the “Raw Data (Response in nA)” value ([4]; first series, 5e-9 M) was 30 nA (2×) and 10 nA (2×) and 20 nA and 0 nA and 5 nA (2×), the “Raw Data (Response in nA)” value ([4]; first series, 1e-8 M) was 60 nA (2×) and 15 nA and 30 nA and 25 nA and 5 nA and 10 nA (2×) and the “Raw Data (Response in nA)” value ([4]; first series, 5e-8 M) was 140 nA and 35 nA and 70 nA and 25 nA (2×) and 110 nA and 10 nA and 30 nA. For the same molecule, the “Raw Data (Response in nA)” value ([4]; first series, 1e-7 M) was 200 nA and 50 nA (3×) and 120 nA and 30 nA (2×) and 190 nA, the “Raw Data (Response in nA)” value ([4]; first series, 5e-7 M) was 500 nA and 150 nA and 320 nA and 90 nA (2×) and 380 nA and 100 nA and 120 nA and the “Raw Data (Response in nA)” value ([4]; first series, 1e-6 M) was 620 nA and 180 nA and 410 nA and 125 nA and 470 nA and 140 nA and 150 nA (2×). For the same molecule, the “Raw Data (Response in nA)” value ([4]; second series (unlabelled), 5e-9 M) was 8.84 nA and 16 nA and 25 nA and 15 nA (2×) and 5 nA (2×) and 0 nA, the “Raw Data (Response in nA)” value ([4]; second series (unlabelled), 1e-8 M) was 20 nA (3×) and 40 nA (2×) and 60 nA and 150 nA and 30 nA and the “Raw Data (Response in nA)” value ([4]; second series (unlabelled), 5e-8 M) was 40 nA (4×) and 80 nA and 100 nA and 160 nA and 20 nA. The “Raw Data (Response in nA)” value ([4]; second series (unlabelled), 1e-7 M) was 60 nA (3×) and 120 nA (2×) and 190 nA and 40 nA and 50 nA, the “Raw Data (Response in nA)” value ([4]; second series (unlabelled), 5e-7 M) was 140 nA and 240 nA and 260 nA and 110 nA and 80 nA (2×) and 300 nA and 50 nA and the “Raw Data (Response in nA)” value ([4]; second series (unlabelled), 1e-6 M) was 180 nA and 290 nA (2×) and 140 nA.
